Test results taken from patent US20020026069A1 (priority 1998, published 2002).

What was measured:
[1] = Stability of the solid on storage or heating; assay type: physicochemical
Hygroscopicity = assay type: physicochemical
Particle size = assay type: physicochemical; details: free base obtained by this process
Solubility = assay type: physicochemical
[2] = Stability in aqueous solution; assay type: physicochemical; details: pH 2-3
[3] = incubation for 6 months at 40° C.; composition produced by the Milman process (U.S. Pat. No. 5,354,885); cited from earlier work
[4] = cited from earlier work
[5] = cited from earlier work; remark: listed apart in the source
[6] = free base obtained by this process
[7] = synthesized by the methods of GB 1,364,505 / U.S. Pat. No. 3,803,120

Compound	stability [1, 6]	sensitivity to heat ([1]; produces cyclic levodopa and levodopa-levodopa ethyl ester)	stability [1, 7]	hygroscopicity (Hygroscopicity; [6])	average particle size (Particle size)	particle size range (Particle size)	solubility in water (Solubility)	stability in the solution [2]	L-DOPA ethyl ester remaining after incubation [3]	hygroscopicity (Hygroscopicity; [7])	solubility [4]	half-life in vivo [5]
CCOC(=O)[C@@H](N)Cc1ccc(O)c(O)c1 [L-DOPA ethyl ester]	stable	very sensitive to heat	not stable	non-hygroscopic	less than 60 μ	18-180 μ	soluble to a certain extent	stable	at least 97 % by weight	–	–	–
CCOC(=O)[C@@H](N)Cc1ccc(O)c(O)c1.Cl [L-DOPA ethyl ester hydrochloride salt, L-DOPA ethyl ester hydrochloride, reference compound]	–	–	not stable	–	–	–	–	–	–	hygroscopic	–	–
N[C@@H](Cc1ccc(O)c(O)c1)C(=O)O [L-DOPA]	–	–	–	–	–	–	–	–	–	–	very poor solubility	short half-life
